Columns and labels:
[1] = Mean residence time in rat at 0.5 mg/kg, iv; format: ADME, organism-based; design: dose 0.5 mg/kg, route intravenous; settings: in vivo
[2] = biological target: Cathepsin (S and K) (Homo sapiens) (UniProt P25774+P43235); experiment: Selectivity for cathepsin S over cathepsin K; format: protein assay
[3] = biological target: Cathepsin (L and K) (Homo sapiens) (UniProt P43235+P07711); experiment: Selectivity for cathepsin L over cathepsin K; format: protein assay
[4] = Volume of distribution in rat at 0.5 mg/kg, iv; format: ADME, organism-based; design: dose 0.5 mg/kg, route intravenous; settings: in vivo, read-out: Vss
Cathepsin S = Cathepsin S (Homo sapiens, UniProt P25774); experiment: Inhibition of human cathepsin S
Chain of Cathepsin S (P25774 whole entry): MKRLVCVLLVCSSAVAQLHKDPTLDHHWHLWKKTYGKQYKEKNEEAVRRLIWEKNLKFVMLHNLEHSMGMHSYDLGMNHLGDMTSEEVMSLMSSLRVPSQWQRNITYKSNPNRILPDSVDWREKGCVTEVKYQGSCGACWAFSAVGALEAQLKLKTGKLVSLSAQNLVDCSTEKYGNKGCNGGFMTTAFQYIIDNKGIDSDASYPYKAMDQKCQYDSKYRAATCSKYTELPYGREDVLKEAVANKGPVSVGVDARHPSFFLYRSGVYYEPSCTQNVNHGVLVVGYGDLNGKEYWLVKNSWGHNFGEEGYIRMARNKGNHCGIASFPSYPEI

[5] = Clearance in rat at 0.5 mg/kg, iv; format: ADME, organism-based; design: dose 0.5 mg/kg, route intravenous; settings: in vivo
Procathepsin L = Procathepsin L (Homo sapiens, UniProt P07711); experiment: Inhibition of human cathepsin L
Chain of Procathepsin L (P07711 whole entry): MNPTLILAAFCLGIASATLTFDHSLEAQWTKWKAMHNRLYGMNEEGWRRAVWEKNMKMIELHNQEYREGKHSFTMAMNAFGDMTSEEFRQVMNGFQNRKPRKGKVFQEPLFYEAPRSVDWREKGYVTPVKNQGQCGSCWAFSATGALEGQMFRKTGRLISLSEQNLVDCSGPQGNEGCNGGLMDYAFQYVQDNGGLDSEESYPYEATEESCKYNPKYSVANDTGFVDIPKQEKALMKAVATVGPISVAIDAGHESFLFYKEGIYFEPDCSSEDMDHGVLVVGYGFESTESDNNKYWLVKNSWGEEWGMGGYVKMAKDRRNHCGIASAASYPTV

[6] = biological target: Cathepsin (B and K) (Homo sapiens) (UniProt P43235+P07858); experiment: Selectivity for cathepsin B over cathepsin K; format: protein assay
Osteoclast = experiment: Effect on degradation of bovine bone by rabbit osteoclast; format: functional, cell-based; settings: Oryctolagus cuniculus
Cathepsin K = biological target: T1, Cathepsin K (Homo sapiens, UniProt P43235); experiment: Inhibition of human cathepsin K
T1 sequence (P43235 whole entry): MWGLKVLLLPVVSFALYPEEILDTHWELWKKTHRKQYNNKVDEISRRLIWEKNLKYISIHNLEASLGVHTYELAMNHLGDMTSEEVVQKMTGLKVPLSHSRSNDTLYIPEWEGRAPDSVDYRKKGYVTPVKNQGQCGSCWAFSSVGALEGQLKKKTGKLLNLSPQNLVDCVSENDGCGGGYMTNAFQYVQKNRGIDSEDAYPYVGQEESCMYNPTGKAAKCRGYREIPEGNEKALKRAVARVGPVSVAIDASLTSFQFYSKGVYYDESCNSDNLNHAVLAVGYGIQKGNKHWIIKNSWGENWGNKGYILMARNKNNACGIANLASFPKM

Cathepsin B = Cathepsin B (Homo sapiens, UniProt P07858); experiment: Inhibition of human cathepsin B
[7] = Oral bioavailability in rat at 10 mg/kg, po; format: ADME, organism-based; settings: in vivo
Rattus norvegicus [8] = experiment: AUC in rat at 10 mg/kg, po; format: ADME, organism-based, Plasma; design: dose 10 mg/kg, route oral; settings: in vivo
Rattus norvegicus [9] = experiment: Half life in rat at 10 mg/kg, po; format: ADME, organism-based; design: dose 10 mg/kg, route oral; settings: in vivo
Rattus norvegicus [10] = experiment: Tmax in rat at 10 mg/kg, po; format: ADME, organism-based; design: dose 10 mg/kg, route oral; settings: in vivo
Rattus norvegicus [11] = experiment: Cmax in rat at 10 mg/kg, po; format: ADME, organism-based; design: dose 10 mg/kg, route oral; settings: in vivo

CC(C)C[C@@H](C(=O)NCC#N)c1cccc(-c2cccc(-c3csc(N4CCN(C(C)(C)C)CC4)n3)c2)c1
MRT [1]: 1.82 h
Selectivity ratio [2]: 4310
Selectivity ratio [3]: 276
Vd [4]: 6.6 L/kg
Ki (Cathepsin S): 5600 nM
clearance [5]: 60 mL/min/kg
Ki (Procathepsin L): 360 nM
Selectivity ratio [6]: 28500
IC50 (Osteoclast): 28 nM
Ki (Cathepsin K): 1.3 nM
Ki (Cathepsin B): 37000 nM

CC(C)CC(C(=O)NCC#N)c1cccc(-c2cccc(-c3csc(N4CCNCC4)n3)c2)c1 (racemic)
bioavailability [7]: 85%
MRT [1]: 2.93 h
Selectivity ratio [2]: 7000
AUC (Rattus norvegicus [8]): 560 µM·min
T1/2 (Rattus norvegicus [9]): 3.9 h
Selectivity ratio [3]: 237
Vd [4]: 4.3 L/kg
Ki (Cathepsin S): 5600 nM
clearance [5]: 25 mL/min/kg
Ki (Procathepsin L): 190 nM
Selectivity ratio [6]: 22500
Tmax (Rattus norvegicus [10]): 3.33 h
IC50 (Osteoclast): 349 nM
Cmax (Rattus norvegicus [11]): 1100 nM
Ki (Cathepsin K): 0.8 nM
Ki (Cathepsin B): 18000 nM

CC(C)C[C@@H](C(=O)NCC#N)c1cccc(-c2cccc(-c3csc(N4CCC(N(C)C)C4)n3)c2)c1 (some centres undefined)
Selectivity ratio [2]: 1200
Selectivity ratio [3]: 180
Ki (Cathepsin S): 3600 nM
Ki (Procathepsin L): 540 nM
Selectivity ratio [6]: 17000
IC50 (Osteoclast): 172 nM
Ki (Cathepsin K): 3 nM
Ki (Cathepsin B): 51000 nM

CC(C)C[C@@H](C(=O)NCC#N)c1cccc(-c2ccc(N3CCNCC3)cc2)c1
MRT [1]: 2.58 h
Selectivity ratio [2]: 212
Selectivity ratio [3]: 580
Vd [4]: 14.8 L/kg
Ki (Cathepsin S): 1690 nM
clearance [5]: 98 mL/min/kg
Ki (Procathepsin L): 4640 nM
Selectivity ratio [6]: 481
IC50 (Osteoclast): 95 nM
Ki (Cathepsin K): 8 nM
Ki (Cathepsin B): 3840 nM

CC(C)CC(C(=O)NCC#N)c1cccc(-c2ccc(-c3csc(N4CCNCC4)n3)cc2)c1 (racemic)
MRT [1]: 1.77 h
Selectivity ratio [2]: 2710
Selectivity ratio [3]: 714
Vd [4]: 12 L/kg
Ki (Cathepsin S): 9500 nM
clearance [5]: 114 mL/min/kg
Ki (Procathepsin L): 2500 nM
Selectivity ratio [6]: 3430
IC50 (Osteoclast): 12 nM
Ki (Cathepsin K): 3.5 nM
Ki (Cathepsin B): 12000 nM

CC(C)C[C@@H](C(=O)NCC#N)c1cccc(-c2cccc(-c3csc(CN4CCNCC4)n3)c2)c1
MRT [1]: 2.33 h
Selectivity ratio [2]: 1540
Selectivity ratio [3]: 141
Vd [4]: 9.1 L/kg
Ki (Cathepsin S): 7400 nM
clearance [5]: 65 mL/min/kg
Ki (Procathepsin L): 680 nM
Selectivity ratio [6]: 10600
IC50 (Osteoclast): 43 nM
Ki (Cathepsin K): 4.8 nM
Ki (Cathepsin B): 51000 nM

CC(C)CC(C(=O)NCC#N)c1cccc(-c2cccc(-c3csc(N4CCN(C)CC4)n3)c2)c1 (racemic)
MRT [1]: 0.9 h
Selectivity ratio [2]: 1380
Selectivity ratio [3]: 300
Vd [4]: 1.7 L/kg
Ki (Cathepsin S): 1800 nM
clearance [5]: 32 mL/min/kg
Ki (Procathepsin L): 390 nM
Selectivity ratio [6]: 16900
IC50 (Osteoclast): 59 nM
Ki (Cathepsin K): 1.3 nM
Ki (Cathepsin B): 22000 nM

— ChEMBL document CHEMBL1145307, “Design and synthesis of tetracyclic nonpeptidic biaryl nitrile inhibitors of cathepsin K” (Bioorg Med Chem Lett, 2006)
